Measured values taken from ChEMBL document CHEMBL4321815, “Discovery of an Extremely Potent Thiazine-Based β-Secretase Inhibitor with Reduced Cardiovascular and Liver Toxicity at a Low Projected Human Dose” (J Med Chem, 2019).

Key:
Cathepsin D = Cathepsin D (Homo sapiens, UniProt P07339); test: Inhibition of Cathepsin D (unknown origin)
Beta-secretase 2 = target: T1, Beta-secretase 2 (Homo sapiens, UniProt Q9Y5Z0); test: Inhibition of BACE2 (unknown origin) by HTRF assay
T1 sequence (Q9Y5Z0 whole entry): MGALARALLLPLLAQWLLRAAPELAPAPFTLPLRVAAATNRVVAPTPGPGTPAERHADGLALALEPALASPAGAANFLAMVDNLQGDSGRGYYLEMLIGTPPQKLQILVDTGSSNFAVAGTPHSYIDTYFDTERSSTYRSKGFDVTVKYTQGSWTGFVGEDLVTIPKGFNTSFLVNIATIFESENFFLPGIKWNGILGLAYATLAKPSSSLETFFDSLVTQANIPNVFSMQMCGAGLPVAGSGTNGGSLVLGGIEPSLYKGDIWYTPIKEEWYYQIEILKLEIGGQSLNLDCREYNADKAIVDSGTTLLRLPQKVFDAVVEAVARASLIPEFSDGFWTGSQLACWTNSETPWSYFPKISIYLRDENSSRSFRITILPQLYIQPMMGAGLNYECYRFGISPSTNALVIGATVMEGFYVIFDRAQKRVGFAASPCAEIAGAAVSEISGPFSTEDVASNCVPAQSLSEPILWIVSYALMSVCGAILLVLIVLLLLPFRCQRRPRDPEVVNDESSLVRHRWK

[1] = Metabolic stability in human hepatocytes at 2 uM incubated for 2 hr; type: ADME, cell-based, Hepatocyte; conditions: read-out: Stability
[2] = Metabolic stability in dog hepatocytes at 2 uM incubated for 2 hr; type: ADME, cell-based, Canis lupus familiaris, Hepatocyte; conditions: read-out: Stability
[3] = Metabolic stability in rat hepatocytes at 2 uM incubated for 2 hr; type: ADME, cell-based, Hepatocyte; conditions: read-out: Stability
[4] = Metabolic stability in mouse hepatocytes at 2 uM incubated for 2 hr; type: ADME, cell-based, Hepatocyte; conditions: read-out: Stability
[5] = Metabolic stability in cynomolgus monkey hepatocytes at 2 uM incubated for 2 hr; type: ADME, cell-based, Macaca fascicularis, Hepatocyte; conditions: read-out: Stability
[6] = Fraction unbound in human plasma after 24 hrs by equilibrium dialysis based LC-MS/MS analysis; type: ADME, cell-free
[7] = Fraction unbound in rat plasma after 24 hrs by equilibrium dialysis based LC-MS/MS analysis; type: ADME, cell-free
[8] = Fraction unbound in mouse plasma after 24 hrs by equilibrium dialysis based LC-MS/MS analysis; type: ADME, cell-free
[9] = Fraction unbound in dog plasma after 24 hrs by equilibrium dialysis based LC-MS/MS analysis; type: ADME, cell-free, Canis lupus familiaris
[10] = Fraction unbound in monkey plasma after 24 hrs by equilibrium dialysis based LC-MS/MS analysis; type: ADME, cell-free, Macaca mulatta; conditions: rhesus monkey
[11] = Fraction unbound in mouse brain at 5 uM incubated for 5 hrs by HPLC-MS/MS analysis; type: ADME, tissue-based
[12] = Clearance in Sprague-Dawley rat at 0.5 mg/kg, iv by LC/MS/MS analysis; type: ADME, organism-based; conditions: in vivo
[13] = Cmax in Sprague-Dawley rat at 1 mg/kg, po by LC/MS/MS analysis; type: ADME, organism-based; set-up: dose 1 mg/kg, route oral; conditions: in vivo
[14] = Oral bioavailability in Sprague-Dawley rat at 1 mg/kg by LC/MS/MS analysis; type: ADME, organism-based; conditions: in vivo
[15] = Unbound brain-to-plasma concentration ratio in Sprague-Dawley rat at 0.5 mg/kg, iv after 30 mins by LC-MS/MS analysis; type: ADME, organism-based; conditions: brain and plasma, read-out: K(p,uu,brain)
Mus musculus [16] = test: In vivo inhibition of BACE1 in po dosed Crl:CD1(ICR) mouse assessed as reduction in amyloidbeta level in brain after 2 to 6 hrs by ELISA; type: functional, organism-based
Mus musculus [17] = test: In vivo inhibition of BACE1 in Crl:CD1(ICR) mouse assessed as reduction in amyloidbeta level in brain at 3 mg/kg, po after 2 to 6 hrs by ELISA relative to control; type: functional
Mus musculus [18] = test: In vivo inhibition of BACE1 in Crl:CD1(ICR) mouse assessed as reduction in amyloidbeta level in brain at 1 mg/kg, po after 2 to 6 hrs by ELISA relative to control; type: functional
[19] = Drug level in Crl:CD1(ICR) mouse brain at 1 mg/kg, po after 2 to 6 hrs; type: ADME, organism-based; conditions: in vivo, read-out: Drug uptake
[20] = Free drug level in Crl:CD1(ICR) mouse brain at 1 mg/kg, po after 2 to 6 hrs; type: ADME, organism-based; conditions: in vivo
[21] = Drug level in Crl:CD1(ICR) mouse brain at 3 mg/kg, po at 6 hrs; type: ADME, organism-based; conditions: read-out: Drug uptake
[22] = Free drug level in Crl:CD1(ICR) mouse brain at 3 mg/kg, po at 6 hrs; type: ADME, organism-based; conditions: in vivo
Canis familiaris [23] = test: In vivo inhibition of BACE1 in po dosed Beagle dog assessed as reduction in amyloidbeta42 level in CSF measured after 4 to 49 hrs; type: functional, organism-based; conditions: Canis lupus familiaris
Canis familiaris [24] = test: In vivo inhibition of BACE1 in Beagle dog assessed as reduction in amyloidbeta42 level in CSF at 1.25 mg/kg, po administered as single dose measured after 4 to 49 hrs relative to control; type: functional; conditions: Canis lupus familiaris
Canis familiaris [25] = test: In vivo inhibition of BACE1 in Beagle dog assessed as reduction in amyloidbeta42 level in CSF at 0.08 mg/kg, po administered as single dose measured after 4 to 49 hrs relative to control; type: functional; conditions: Canis lupus familiaris
[26] = Unbound CSF to plasma concentration ratio in Beagle dog at 0.08 to […], po measured up to 49 hrs; type: ADME, organism-based, Canis lupus familiaris; conditions: CSF and plasma
Canis familiaris [27] = test: In vivo inhibition of BACE1 in po dosed Beagle dog assessed as plasma level causing 50% reduction in amyloidbeta42 level in CSF administered as single dose measured after 4 to 49 hrs; type: functional, organism-based; conditions: Canis lupus familiaris
Canis familiaris [28] = test: In vivo inhibition of BACE1 in po dosed Beagle dog assessed as plasma level causing 80% reduction in amyloidbeta42 level in CSF administered as single dose measured after 4 to 49 hrs; type: functional, Canis lupus familiaris
[29] = Clearance in mouse at 0.5 mg/kg, iv; type: ADME, organism-based; conditions: in vivo
[30] = Volume of distribution at steady state in mouse at 0.5 mg/kg, iv; type: ADME, organism-based; conditions: in vivo, read-out: Vdss
[31] = Half life in mouse at 0.5 mg/kg, iv; type: ADME, organism-based; conditions: in vivo

Cathepsin D, sequence (P07339 65-162 limits assumed): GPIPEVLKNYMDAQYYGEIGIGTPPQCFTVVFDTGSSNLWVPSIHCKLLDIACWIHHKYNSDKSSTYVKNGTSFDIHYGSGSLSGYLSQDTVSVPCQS
Cathepsin D, sequence (P07339 169-412 limits assumed): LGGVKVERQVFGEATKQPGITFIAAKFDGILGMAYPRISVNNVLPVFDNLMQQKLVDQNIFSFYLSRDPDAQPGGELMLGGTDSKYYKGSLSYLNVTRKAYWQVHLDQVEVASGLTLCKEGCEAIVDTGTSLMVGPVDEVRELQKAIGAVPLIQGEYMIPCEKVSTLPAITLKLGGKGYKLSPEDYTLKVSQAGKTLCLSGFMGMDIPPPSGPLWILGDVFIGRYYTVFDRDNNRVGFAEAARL

Compound: C[C@H]1SC(N)=N[C@](C)(c2cc(NC(=O)c3cnc(OCF)cn3)ccc2F)[C@H]1F
- IC50 (Cathepsin D): ≥ 100000 nM
- IC50 (Beta-secretase 2): 7.1 nM
- remaining at 2 h, 2 µM [1]: 89%
- remaining at 2 h, 2 µM [2]: 90%
- remaining at 2 h, 2 µM [3]: 74%
- remaining at 2 h, 2 µM [4]: 71%
- remaining at 2 h, 2 µM [5]: 55%
- fraction unbound at 24 h [6]: 0.083
- fraction unbound at 24 h [7]: 0.12
- fraction unbound at 24 h [8]: 0.15
- fraction unbound at 24 h [9]: 0.078
- fraction unbound at 24 h [10]: 0.12
- fraction unbound at 5 h, 5 µM [11]: 0.034
- clearance [12]: 24.8 to 27 mL/min/kg
- Cmax [13]: 38.4 ng/mL
- bioavailability [14]: 31%
- Kp uu at 0.5 h [15]: 0.95
- inhibition (Mus musculus [16]): Dose-dependent effect
- inhibition in vivo at 3 mg/kg (Mus musculus [17]): 90%
- inhibition in vivo at 1 mg/kg (Mus musculus [18]): 55%
- concentration [19]: 87 nM
- Drug uptake(free) [20]: 3 nM
- concentration at 6 h [21]: 611 nM
- Drug uptake(free) [22]: 73 nM
- inhibition (Canis familiaris [23]): Dose-dependent effect
- inhibition in vivo at 1.25 mg/kg (Canis familiaris [24]): 80%
- inhibition in vivo at 0.08 mg/kg (Canis familiaris [25]): 50%
- Kp uu at 49 h [26]: 0.77
- EC50 (Canis familiaris [27]): 21 nM
- EC80 (Canis familiaris [28]): 100 nM
- clearance [29]: 41 mL/min/kg
- Vd [30]: 7.5 L/kg
- half-life [31]: 3.2 h
